Measurements from ChEMBL document CHEMBL1201862, “PubChem BioAssay data set” (2004).
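Grown in 96-well plates, cells were treated for 48 hours with each compound at five concentrations. Insufficient inhibition: endpoint recorded as highest concentration tested. GI50 = concentration required for 50% inhibition of growth.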 Calls of active or inactive are those of the source. No stated cut-off is given here; in the data, active = GI50 up to about 1.1 µM and inactive = higher.

Legend:
Assay in all cases: inhibition of tumour cell growth, NCI panel, 48 h
SF-268 = tested on: SF-268
HCC 2998 = tested on: HCC 2998
HOP-62 = tested on: HOP-62
SR = tested on: SR
HT-29 = tested on: HT-29
Malme-3M = tested on: Malme-3M
UACC-62 = tested on: UACC-62
ACHN = tested on: ACHN
OVCAR-3 = tested on: OVCAR-3
DU-145 = tested on: DU-145
SK-OV-3 = tested on: SK-OV-3
HCT-116 = tested on: HCT-116
M14 = tested on: M14
U-251 = tested on: U-251
SNB-75 = tested on: SNB-75
HCT-15 = tested on: HCT-15
NCI-H522 = tested on: NCI-H522
LOX IMVI = tested on: LOX IMVI
BT-549 = tested on: BT-549
SK-MEL-28 = tested on: SK-MEL-28
TK-10 = tested on: TK-10
OVCAR-5 = tested on: OVCAR-5
K562 = tested on: K562
MDA-MB-435 = tested on: MDA-MB-435
SW-620 = tested on: SW-620
SF-295 = tested on: SF-295
COLO 205 = tested on: COLO 205
SN12C = tested on: SN12C
NCI-H23 = tested on: NCI-H23
RPMI-8226 = tested on: RPMI-8226
OVCAR-4 = tested on: OVCAR-4
SNB-19 = tested on: SNB-19
UO-31 = tested on: UO-31
NCI-H226 = tested on: NCI-H226
EKVX = tested on: EKVX
MDA-N = tested on: MDA-N
HOP-92 = tested on: HOP-92
UACC-257 = tested on: UACC-257
IGROV-1 = tested on: IGROV-1
CCRF-CEM = tested on: CCRF-CEM
SF-539 = tested on: SF-539
MCF7 = tested on: MCF7
786-0 = tested on: 786-0
SK-MEL-2 = tested on: SK-MEL-2
MOLT-4 = tested on: MOLT-4
OVCAR-8 = tested on: OVCAR-8
A498 = tested on: A498
NCI/ADR-RES = tested on: NCI/ADR-RES
KM12 = tested on: KM12
NCI-H460 = tested on: NCI-H460
A549 = tested on: A549
CAKI-1 = tested on: CAKI-1
HL-60 = tested on: HL-60
SK-MEL-5 = tested on: SK-MEL-5
PC-3 = tested on: PC-3
MDA-MB-231 = tested on: MDA-MB-231
T47D = tested on: T47D

Measured: GI50

COc1cc2c3c(c4cc(OC)c(OC)cc4c2cc1OC)[C@H](O)[C@@H]1CCCN1C3
< 23.9 nM: HCT-15
active: SF-268 < 40.8 nM | HCC 2998 < 24.3 nM | HOP-62 < 19.8 nM | SR 29 nM | HT-29 < 19.1 nM | Malme-3M < 38.4 nM | UACC-62 < 33.7 nM | ACHN < 15.7 nM | OVCAR-3 38.4 nM | DU-145 < 24.3 nM | SK-OV-3 < 23.7 nM | HCT-116 < 21.5 nM | M14 < 33.2 nM | U-251 < 24.5 nM | SNB-75 < 31.2 nM | NCI-H522 < 37.8 nM | LOX IMVI < 26.5 nM | BT-549 144 nM | SK-MEL-28 < 28.4 nM | TK-10 56.2 nM | OVCAR-5 < 31.6 nM | K562 < 21 nM | MDA-MB-435 < 26.5 nM | SW-620 < 26.9 nM | SF-295 < 22.2 nM | COLO 205 < 17.9 nM | SN12C < 30.3 nM | NCI-H23 < 34.4 nM | RPMI-8226 < 25.3 nM | OVCAR-4 < 23.4 nM | SNB-19 27.6 nM | UO-31 < 33.7 nM | NCI-H226 49.4 nM | EKVX < 21.7 nM | MDA-N < 36.3 nM | HOP-92 < 47.8 nM | UACC-257 < 38.3 nM | IGROV-1 < 27.5 nM | CCRF-CEM < 27.2 nM | SF-539 < 36.5 nM | MCF7 < 17.3 nM | 786-0 < 32.1 nM | SK-MEL-2 < 16.7 nM | MOLT-4 < 10 nM | OVCAR-8 < 30.8 nM | A498 < 20.8 nM | NCI/ADR-RES < 37.2 nM | KM12 < 23.2 nM | NCI-H460 < 22.6 nM | A549 < 25.4 nM | CAKI-1 < 32.4 nM | HL-60 < 35.7 nM | SK-MEL-5 < 25.9 nM | PC-3 < 30.3 nM | MDA-MB-231 < 34.2 nM | T47D 26.9 nM
